Columns and labels:
[1] = specific extinction E^11 (1% solution, 1 cm optical path); format: physicochemical; conditions: at 328 nm; solution containing 1% of the product, optical path of 1 cm
Source text: The efficacy of UV absorbers is characterised by the parameter E^11 (or E11), which corresponds to the extinction value measured at the maximum absorption wavelength of a solution containing 1% of the product in question, measured with an optical path of 1 cm. Such extinction is called “specific extinction”.

[2] = Solubility Test in emollients (cosmetic solvents); format: physicochemical
Experimental: The solubility of the sunscreens obtained in example 2 and (comparative) example 3 were evaluated in various emollients commonly used in suncare and daily skincare products: C12-15 alkyl benzoate, dibutyl adipate, caprylic/capric triglyceride and ethylhexyl salicylate.

[3] = in Caprylic/Capric Triglyceride

Row | Compound | E^11 extinction [1] | solubility ([2]; in C12-15 Alkyl Benzoate) [% w/w %] | solubility [2, 3] [% w/w %] | solubility ([2]; in Dibutyl Adipate) [% w/w %] | solubility ([2]; in Ethylhexyl Salicylate) [% w/w %]
1 | CCCCC(CC)COC(=O)c1ccc(Nc2nc(Nc3ccc(-c4nc5cc(C(C)(C)CC)ccc5o4)cc3)nc(Nc3ccc(-c4nc5cc(C(C)(C)CC)ccc5o4)cc3)n2)cc1 (stereo not shown) [Example 2] | 1431 | 15 | 15 | 20 | 25
2 | CCCCC(CC)COC(=O)c1ccc(Nc2nc(Nc3ccc(-c4nc5cc(C(C)(C)C)ccc5o4)cc3)nc(Nc3ccc(-c4nc5cc(C(C)(C)C)ccc5o4)cc3)n2)cc1 (stereo not shown) [Example 3] | 1395 | 5 | <5 | 5 | 10

— US20190365626A1, “HIGHLY EFFECTIVE PHOTOPROTECTIVE AGENTS” (3V Sigma S.P.A., priority 2018, published 2019)
